{"source": "patent US20220023302A1", "about": "“PDE9 INHIBITORS FOR TREATING SICKLE CELL DISEASE” (Imara Inc., priority 2019, published 2022)", "key": {"[1]": {"assay": "Solubility in water", "format": "physicochemical", "protocol": "Per taste testing results, bitterness could be detected for all these samples. […] At this level of solubility, masking the taste of Compound 1 in an oral solution is challenging. Even high level of sucralose was evaluated and taste of the oral solution remained bitter. […] Furthermore, strawberry flavor was chosen, because patients like its sweet taste and it has a good solubility in water. Orange juice or lime juice may be used to dilute the oral solution and to mask the bitter taste before administration."}, "[2]": {"system": "CD11a, CD11b and CD18 integrins on SCD patient neutrophils", "assay": "Integrin expression on SCD patient neutrophils", "format": "cell-based, human", "source_text": "(§1) This appears to be accompanied by a Compound 1-mediated reduction in disease specific cell activation including 67% lower levels of myeloid derived myeloperoxidase (MPO) and 26% lower levels of neutrophil derived arginase in the lung (FIG. 1). […] This was quantified by real time monitoring of the green florescent patches in the microchannel, as neutrophils are labeled by a specific Alexa Fluor® 488-conjugated antibody before the perfusion step. […] Under these conditions, adhesion was reduced an average of 54% (p=0.03) (FIG. 2). Mechanistically, not willing to be bound by any theory, Compound 1 may target the stationary adhesion step of neutrophils as it lowered expression levels of key neutrophil integrins including CD11a [reduced 23% (p=0.002)], CD11b [reduced 39% (ns)) and CD18 [reduced 47% (p=0.03)) (FIG. 3)."}, "[3]": {"system": "SCD patient derived cell lines", "assay": "Study in SCD patient derived cell lines", "format": "cell-based, human"}, "[4]": {"system": "SCD patient neutrophils", "assay": "In vitro adhesion assay mimicking blood flow (microchannels lined with activated HMEC-1)", "format": "cell-based, human", "source_text": "as §1"}, "[5]": {"system": "Townes mouse model", "assay": "Plasma sE-Sel in the Townes mouse model", "format": "in vivo", "details": "Townes mice treated with Compound 1", "protocol": "Endothelial E-selectin (E-Sel) slows leukocyte rolling, which is followed by stationary adhesion and transmigration of activated leukocytes. Plasma levels of sE-Sel, produced by the enzymatic cleavage of the extracellular domains of E-Sel, are increased in SCD patients and this may be mediated by its interaction with leukocytes. In the Townes mouse model, plasma sE-Sel is increased 144% ([…]) over levels seen in control mice ([…])."}, "[6]": {"system": "Erythroid cell lines (K562, UT-7)", "assay": "In vitro studies in erythroid cell lines vs. HU", "format": "cell-based", "source_text": "The effects of Compound 1 is compared with HU in in vitro studies in erythroid cell lines (K562 and UT-7)."}, "[7]": {"system": "SCD models", "assay": "Circulating levels of PMNs in SCD models", "format": "in vivo, murine", "source_text": "as §1, with “Recently several drugs targeting white cell binding to endothelial cells, have been advancing in clinical studies in patients. Compound 1 is able to increase expression of fetal hemoglobin in patient derived cells and murine models of SCD and reduce vessel occlusion in SCD murine models. In this Example, the ability of Compound 1 to reduce the adhesive properties of neutrophils from SCD patients and reduce sE-Selectin (sE-Sel) and markers of PMN activation in murine SCD models was studied. […] This appears” for “This appears”"}, "[8]": {"system": "Townes SCD model", "assay": "28 day Townes SCD model, Compound 1 vs. HU (RBC/WBC)", "format": "in vivo, mouse", "protocol": "In one study, Compound 1 and therapeutic doses of HU (25 mg/kg and 50 mg/kg) were tested side-by-side in the 28 day Townes SCD model (oral daily). […] MPO is a monocyte inflammatory marker. Plasma nitrate is improved nitrate levels. Lower levels of plasma nitrate may contribute to hemolysis in SCD patients."}, "[9]": {"assay": "Clinical safety and tolerability", "format": "in vivo, human", "protocol": "In some embodiments, Compound 1, or a pharmaceutically acceptable salt, solvate, or hydrate thereof is administered to a patient, wherein Compound 1, or a pharmaceutically acceptable salt, solvate, or hydrate thereof, is administered once a day with food. […] The incidence and severity of the side effects, such as nausea, emesis and headache, can be reduced when Compound 1, or a pharmaceutically acceptable salt, solvate, or hydrate thereof, is taken with food.\nTherefore, Population A is designed to explore the PD dose response in patients as well as the tolerability of the 200 mg dose level in sickle cell patients who have tolerated the 100 mg dose well."}, "[10]": {"assay": "Stability of Compound 1 in solution as a function of pH", "format": "physicochemical", "source_text": "The pH of the solution affects the compound stability and solubility. […] In some embodiments, pharmaceutical composition has a pH from about 3.0 to about 7.0. In some embodiments, the pharmaceutical composition has a pH from about 3.0 to about 6.0, or from about 5.5 to about 6.5. In some embodiments, pH of the pharmaceutical composition is about 5.5, about 5.6, about 5.7, about 5.8, about 5.9, about 6.0, about 6.1, about 6.2, about 6.3, about 6.4, or about 6.5. In some embodiments, pH of the pharmaceutical composition is about 5.5. In some embodiments, pH of the pharmaceutical composition is about 6.0.\nThere is no obvious excipient that can mask its taste. Another major challenge was to optimize the excipients quantity. […] In some embodiments, a pharmaceutical composition of pH above 5.5 comprising Compound 1 is provided. […] Extensive formulation development and manufacturing process studies were carried out. Other challenges are the excipient compatibility and stability of the API in solution."}, "[11]": {"assay": "Nonclinical data on concomitant administration of HU with Compound 1", "format": "in vivo", "protocol": "Results from Population B are intended to provide information on Compound 1 when administered concomitantly with HU, both of which increase HbF levels through alternative biochemical pathways that increase intracellular cGMP. Because there are no clinical data to support administration of Compound 1 concomitantly with HU, patients in Population B initiate Compound 1 dosing at the low dose (30 mg or 50 mg) used in Population A and only escalate to the 100 mg dose if the 50 mg dose has been safe and tolerated for 4 weeks."}, "[12]": {"system": "Townes mice", "assay": "Myeloid and neutrophil inflammatory markers in the lungs of Townes mice", "format": "in vivo, mouse", "source_text": "as §1"}, "[13]": {"system": "In-vivo SCD: vaso occlusion", "assay": "In-vivo SCD: vaso occlusion (WBC)"}, "[14]": {"system": "C57B1/6J", "assay": "In-vivo cognition: C57B1/6J"}}, "note": "Entries after “also recorded” stand apart in the source; their conditions may differ.", "data": [{"smiles": "C[C@@H]1CN(Cc2ncccn2)C[C@H]1c1cn2c(C3CCOCC3)ncc2c(=O)[nH]1", "note": "[Compound 1, 6-[(3S,4S)-4-methyl-1-(pyrimidin-2-ylmethyl)pyrrolidin-3-yl]-3-tetrahydropyran-4-yl-7H-imidazo[1,5-a]pyrazin-8-one]", "values": [{"measurement": "solubility", "setting": "[1]", "value": "~1000", "unit": "mg/mL"}, {"measurement": "expression of CD11a, CD11b and CD18 integrins", "setting": "[2]; FIG. 3 legend", "value": "reduces expression"}, {"measurement": "CD11b expression reduced", "setting": "[2]; ns, FIG. 3", "value": 39, "unit": "%"}, {"measurement": "CD11a expression reduced", "setting": "[2]; p=0.002, FIG. 3", "value": 23, "unit": "%"}, {"measurement": "CD18 expression reduced", "setting": "[2]; p=0.03, FIG. 3", "value": 47, "unit": "%"}, {"measurement": "F-cells %", "setting": "[3]", "value": "F-cells % increase"}, {"measurement": "HbF", "setting": "[3]", "value": "increases in HbF"}, {"measurement": "reduction of neutrophil adhesion to activated HMEC-1", "setting": "[4]; 30 min incubation with 30 μM, average, p=0.03, FIG. 2", "value": 54, "unit": "%"}, {"measurement": "adhesion of SCD patient neutrophils to endothelial cells", "setting": "[4]; added to whole blood samples prior to perfusion", "value": "reduced adhesions significantly and in a dose dependent manner; also recorded: reduces adhesion"}, {"measurement": "plasma sE-Sel levels", "setting": "[5]; control mice 57, Townes mice 139", "value": 92, "unit": "ng/mL"}, {"measurement": "plasma sE-Sel elevation over control mice", "setting": "[5]; untreated Townes 144%", "value": 61, "unit": "%"}, {"measurement": "cGMP levels vs. HU", "setting": "[6]", "value": "increased cGMP levels compared with HU; also recorded: Increased cGMP levels vs. HU;"}, {"measurement": "induction of HbF (RNA, protein, etc.)", "setting": "[6]", "value": "induction of HbF (RNA, protein, etc.)"}, {"measurement": "circulating levels of PMNs", "setting": "[7]", "value": "reduced"}, {"measurement": "key measures of RBC pathology (sickled RBCs; unconjugated bilirubin; % HbF cells; LDH activity) vs. HU", "setting": "[8]; 28 day, oral daily, Compound 1 30 mg/kg, HU 25 and 50 mg/kg, FIG. 4", "value": "outperforms HU in a statistically significant manner"}, {"measurement": "measures of WBC pathology vs. HU", "setting": "[8]; 28 day, oral daily, Compound 1 30 mg/kg, HU 25 and 50 mg/kg, FIG. 5", "value": "outperforms HU in a statistically significant manner"}, {"measurement": "RBC/WBC parameters vs. HU", "setting": "[8]; Townes", "value": "Statistically better results than HU"}, {"measurement": "effect of food on adverse event profile (nausea, emesis, headache)", "setting": "[9]; once a day with food", "value": "dramatically reduce the adverse event profile"}, {"measurement": "safety and tolerability", "setting": "[9]; once daily doses of 30, 50, 100, and 200 mg, nonclinical and healthy volunteer clinical data", "value": "safe and well tolerated"}, {"measurement": "stability at a lower pH", "setting": "[10]", "value": "unstable"}, {"measurement": "increase of Compound 1 exposure by concomitant HU", "setting": "[11]", "value": "do not suggest"}, {"measurement": "myeloid and neutrophil inflammatory markers in the lungs", "setting": "[12]; Townes mice, FIG. 1 legend", "value": "reduces"}, {"measurement": "lower levels of myeloid derived myeloperoxidase (MPO) in the lung", "setting": "[12]; lung, FIG. 1", "value": 67, "unit": "%"}, {"measurement": "lower levels of neutrophil derived arginase in the lung", "setting": "[12]; lung, FIG. 1", "value": 26, "unit": "%"}, {"measurement": "vaso occlusion (WBC) vs. HU", "setting": "[13]", "value": "Better results vs. HU; combo"}, {"measurement": "CNS activity", "setting": "[14]", "value": "No CNS activity"}]}]}
